Columns and labels:
[1] = system: sema4D/CD100; assay: sema4D/CD100 cleavage in activated platelets (immunoblot with Abm30); format: cell-based, human; details: for cleavage of sema4D/CD100: platelets stimulated with 100 nM PMA at 37° C. for 30 min, 20 μM TAPI-2 preincubated for 60 min (FIG. 4A), EDTA not shown
Excerpt: (§1) FIG. 4 represents the effect of metalloprotease inhibitors on sema4D expression. […] Sema4D was precipitated and blotted with Abm30. Ig light and heavy chains are indicated.
(§2) The observation that sema4D/CD100 cleavage occurs in washed platelets implies that the protease involved is intrinsic to the platelets and not a plasma protein. Platelets are known to contain a number of metalloproteases, including members of the MMP and ADAM families (Sheu, J. R., et al., Br J Pharmacol, 2004. 143(1): p. 193-201. Sawicki, G., et al., Nature, 1997. 386: p. 616-619. Sawicki, G., et al., Thromb. Haemost., 1998. 80: p. 836-839. Colciaghi, F., et al., Mol Med, 2002. 8(2): p. 67-74.).

[2] = system: sema4D/CD100; assay: sema4D/CD100 surface expression on platelets by FACS; format: cell-based, human; details: platelets stimulated with PMA for 15 min or 60 min, FACS (FIG. 4B)
Experimental: as §1
Surface expression of sema4D/CD100 was detected by FACS using an antibody that recognizes the extracellular domain. Expression increased when the platelets were activated with PMA for 15 minutes (FIG. 1C). In contrast, the α-granule membrane protein, P-selectin, was detected only on activated platelets.
as §2

[3] = system: human platelets; assay: ADP-induced platelet aggregation; format: cell-based
Experimental: FIG. 9A represents human platelets that were stimulated with a low concentration of ADP±soluble a soluble chimera of the extracellular domain of sema4D/CD100 fused to IgGκ Fc. FIG. 9B represents an immunoblot of FcCD100 that was performed under reducing and non-reducing conditions using anti-Fc.
Soluble sema4D/CD100 caused an increase in ADP-induced aggregation (FIG. 9). In this experiment, soluble sema4D/CD100 was added as a fusion protein (referred to as FcSema4D or FcCD100) in which the entire extracellular domain of sema4D/CD100 was fused to an IgG Fc domain. The protein forms a disulfide-linked homodimer capable of activating sema4D/CD100 receptors (Ishida, I., et al., Int Immunol, 2003. 15(8): p. 1027-34). FcCD100 had no effect when added on its own (not shown). […] Therefore, it appears that stimulating a receptor for sema4D/CD100 on platelets potentiates platelet responses to ADP. Additional platelet agonists (especially collagen) are going to be explored using platelet accumulation on collagen under flow as an additional endpoint.

[4] = molecular target: T1, recombinant ADAM17 (Homo sapiens, UniProt P78536); assay: Cleavage of Fc-sema4D by recombinant ADAM17; format: biochemical; details: recombinant ADAM17 lacking the pro domain (FIG. 11)
T1 construct: incubated with recombinant ADAM17 lacking the pro domain
T1 sequence (P78536 215-824): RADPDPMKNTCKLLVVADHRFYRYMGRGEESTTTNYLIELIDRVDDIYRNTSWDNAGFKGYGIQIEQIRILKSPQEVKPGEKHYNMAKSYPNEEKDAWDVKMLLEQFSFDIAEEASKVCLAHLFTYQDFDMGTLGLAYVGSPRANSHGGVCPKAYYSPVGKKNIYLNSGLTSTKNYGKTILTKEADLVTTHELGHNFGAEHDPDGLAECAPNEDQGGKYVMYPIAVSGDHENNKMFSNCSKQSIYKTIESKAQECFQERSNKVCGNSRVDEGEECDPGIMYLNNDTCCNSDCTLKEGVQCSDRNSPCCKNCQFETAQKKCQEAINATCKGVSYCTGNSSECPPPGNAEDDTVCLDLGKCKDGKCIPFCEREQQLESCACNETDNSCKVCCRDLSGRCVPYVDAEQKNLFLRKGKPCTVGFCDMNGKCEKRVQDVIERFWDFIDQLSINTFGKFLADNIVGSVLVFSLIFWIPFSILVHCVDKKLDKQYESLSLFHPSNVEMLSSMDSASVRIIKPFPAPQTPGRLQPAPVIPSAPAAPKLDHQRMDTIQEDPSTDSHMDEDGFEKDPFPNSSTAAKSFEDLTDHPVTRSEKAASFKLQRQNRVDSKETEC
Experimental: FIG. 11 represents the cleavage of sema4D by ADAM17. Recombinant ADAM17 was incubated with Fc-sema4D in which the extracellular domain of human sema4D was joined via a linker to the N-terminus of IgG1 Fc. Two fragments were detected by amido black protein staining (left), the smaller of which (fragment #1) was also detectable with anti-Fc, as was the intact protein (middle). The N-terminal sequence of fragment #1 was determined.
The cleavage site within platelet sema4D/CD100 was determined by using the C-terminal sema4D/CD100 antibody to immunoprecipitate the 25-30 kDa fragment that includes the transmembrane domain and any remaining extracellular domain. […]
In an effort to determine whether sema4D is a direct substrate for ADAM17, a chimeric protein comprised of the extracellular domain of human sema4D fused to the N-terminus of an IgG Fc domain fragment (Ishida et al. 2003. Int Immunol 15:1027-1034) was incubated with recombinant ADAM17 lacking the pro domain (Milla et al. 1999. J Biol Chem 274:30563-30570). […] It has been determined that in platelets, as in lymphocytes, the extracellular domain of sema4D/CD100 is shed as a disulfide-linked dimer.

[5] = system: sema4D/CD100; assay: Rate of sema4D/CD100 cleavage in stirred, PMA-activated platelets; format: cell-based, human; details: fibrinogen binding and aggregation inhibited by the peptide (not shown)
Experimental: Washed platelets were stimulated with 100 nM PMA in an aggregometer cuvette at 37° C. with or without stirring. Lysates were precipitated and blotted with antibody Abm30. The extent of platelet aggregation in the stirred samples is indicated below each lane.
To address the issue of whether the rate of sema4D/CD100 cleavage is different when aggregation is allowed to occur than when activation occurs in the absence of aggregation, platelets were activated with or without the stirring needed for platelet aggregates to form. PMA caused a time-dependent loss of intact sema4D/CD100 and the appearance of the C-terminal sema4D/CD100 fragment. The rate of cleavage was accelerated when aggregation was allowed to occur (FIG. 3). Even at its fastest, however, cleavage lagged behind aggregation.
Platelet aggregation study also included the use of washed platelets were stimulated with 100 nM PMA in an aggregometer cuvette at 37° C. with or without stirring. Lysates were precipitated and blotted with antibody Abm30.

[6] = system: Akt; assay: Akt phosphorylation (pAkt473 immunoblot) in human platelets; format: cell-based; details: immunoblot for pAkt473, absent in resting platelets (FIG. 7)
Experimental: FIG. 7 represents an immunoblot for pAkt473 from human platelets that were stimulated with recombinant sema4D or thrombin.
Activation of the PI 3-kinase pathway was measured using phosphorylation of Akt as a surrogate. Akt phosphorylation normally occurs in platelets activated by collagen and other agonists. Akt phosphorylation was also recently shown to occur in endothelial cells stimulated with soluble sema4D/CD100 (Basile, et al. Mol Cell Biol. […]: 6889, 2005). In endothelial cells responses to sema4D/CD100 appear to be mediated by plexin-B1. In FIG. 7, human platelets were stimulated with a His-tagged protein corresponding to the human sema4D/CD100 exodomain. Platelet lysates were prepared and immunoblotted with an antibody specific for pAkt473. Thrombin was used as a positive control.

[7] = system: monocytes; details: cited from earlier work

O=C(O)CN(CCN(CC(=O)O)CC(=O)O)CC(=O)O [EDTA]
cleavage of sema4D/CD100 [1]: inhibited

CNC(=O)[C@H](Cc1c[nH]c2ccccc12)NC(=O)[C@@H](CC(=O)NO)CC(C)C [GM6001]
cleavage of sema4D/CD100 [1]: inhibited

CC(C)C[C@H](CC(=O)NO)C(=O)N[C@H](C(=O)N[C@@H](C)C(=O)NCCN)C(C)(C)C [TAPI-2]
sema4D/CD100 cleavage ([1]; platelets activated by thrombin or SFLLRN (not shown)): abolished | cleavage of sema4D/CD100 [1]: inhibited | loss of sema4D/CD100 surface expression [2]: prevented the loss of surface expression

FcCD100: fusion protein in which the entire extracellular domain of sema4D/CD100 was fused to an IgG Fc domain; disulfide-linked homodimer
platelet aggregation in the presence of ADP ([3]; low concentration of ADP (FIG. 9)): caused an increase in platelet aggregation | platelet aggregation, added on its own ([3]; no ADP (not shown)): no effect | cleavage by recombinant ADAM17 [4]: Cleavage produced two identifiable fragments

RGDS
rate of sema4D/CD100 cleavage [5]: the rate of cleavage became more like that seen when the platelets were activated without stirring

soluble sema4D/CD100: in FIG. 7 a His-tagged protein corresponding to the human sema4D/CD100 exodomain
pAkt in platelet lysates [6]: readily detectable | half-maximal effects on monocytes [7]: 5 to 10 ng/mL | maximal effects on monocytes [7]: 40 to 50 ng/mL

thrombin
pAkt in platelet lysates [6]: readily detectable

Source: patent publication US20100040617A1, “Method of Using CD100 (or Sema4D) to Mediate Platelet Activation and Inflammatory Responses” (Trustees of the University of Pennsylvania, priority 2004, published 2010)
